# Test results: patent EP0310322A2, “Use of thromboxane B2 to constrict the pupil and lower intraocular pressure” (ALLERGAN, INC, priority 1987, dated 1989)
# Columns and labels:
# [1] = test system: pupil; assay: Pupil diameter after intracameral injection in flurbiprofen-pretreated sedated rabbits (Example 2); type: in vivo, New Zealand albino rabbits
# Experimental: Seven New Zealand albino rabbits were treated, topically, with 0.03% flurbiprofen (Ocufen, Allergan) every 1/2 hour for two hours to inhibit endogenous synthesis of thromboxane. Following flurbiprofen treatment the rabbits were sedated with a 1:1 mixture of Ketamine and Rompum and the pupil diameters of both eyes were measured and recorded as before. 50ug (6ul) of TXB2 was injected intracamerally into the right eye of each rabbit and an equal volume of vehicle was administered to the left eyes. The pupil diameters were measured five minutes following the injections. This does of TXB2 was chosen because it is 1000 times the concentration of TXB2 found in clotting blood in rabbits (Ali and Mohammed, 1986). Carbachol 200ng (1ul) was injected into both eyes and the pupil diameters recorded after a five minute and a ten minute duration.
# Refer to Figure 1. Next, both eyes were injected with 200ng (1ul) of carbachol.
# [2] = test system: pupil; assay: Pupil diameter after sequential intracameral injections in a sedated rabbit (Example 1); type: in vivo, New Zealand albino rabbit; details: for Pupil Diameter: 5 min after injection
# Experimental: One New Zealand albino rabbit (2-4Kg) was sedated with an intramuscular injection of a 1:1 mixture of ketamine (Vetalar, Parke-Davis and xylazine (Rompum, Haver-Lockhart). The pupil diameters of both eyes were measured under standard room lighting with an optistick and recorded. The right eye was injected intracamerally with 100ng of thromboxane B₂ (12ul). The contralateral eye was injected with an equal volume of the vehicle solution, 0.05% BSA (Bovine Serum Albumin) in 0.01N CH₃COOH. Hamilton syringes with 30 gauge needles were used for the injection. Five minutes later the pupil diameters of both eyes were measured and recorded. Sequential injections of thromboxane B₂ (Sigma) were made into the right eye and an equal volume of vehicle into the left. Five minutes after each injection the pupil diameters were measured and recorded. A total of three injections of thromboxane B₂ (TXB2) were administered to the right eye; 100ng, 1ug, 10ug (12ul). After the last injection of TXB2, carbachol, 200ng (lul) was administered to both eyes, intracamerally, and the pupil diameters were measured after five minutes.
# [3] = test system: pupil; assay: Pupil diameter after topical drops in awake monkeys (Example 4); type: in vivo, Cebus apella monkeys; details: Cebus monkeys, total dose per eye 2.5 micrograms to 1 mg
# Experimental: Eight Cebus apella monkeys were treated topically with thromboxane B₂ in one eye and normal saline in the contralateral eye. The monkeys were awake and alert and seated in primate chairs for the duration of the experiment. The thromboxane B₂ concentrations used were 0.625ug, 1.25ug, 6.25ug, 12.5ug, 62.5ug, 125.0ug and 250ug per drop. A 50ul drop was administered following the baseline pupil diameter measurement. Three more drops were given at 15 minute intervals. Total dose per eye after 4 drops ranged between 2.5 micrograms and 1 mg. Pupil diameter was measured just before each administration. The last measurement was taken at 60 minutes.
# In the eight Cebus monkeys with TXB2-treated eyes, the pupil diameters decreased 0.75 to […] at 30 minutes.
# The range of doses used probably represented the upper end of the dose-response curve. The 0.75 to […] pupil constriction represents a significant response in the small Cebus eye.
# [4] = test system: pupil; assay: Pupil diameter after intracameral injection in flurbiprofen-pretreated sedated cats (Example 3); type: in vivo, domestic cats; details: cat
# Experimental: Fifteen male and female domestic cats were treated topically with 0.03% flurbiprofen (in both eyes) every 1/2 hours for two hours to inhibit endogenous thromboxane synthesis. The cats were sedated with 0.5 to 0.75ml of Rompum (20mg/ml) by intramuscular injection. […] The pupil diameters of both eyes were measured with an optistick and recorded. The right eye of each cat was injected intracamerally with one concentration of thromboxane B₂ ranging from a high of 500ng (10ul) to a low of 10ng (10ul). The contralateral eye was injected with an equal volume of the vehicle: saline. The pupil diameters were measured five and ten minutes after the injections. The cats were allowed to regain consciousness while in the laboratory.
# Increasing concentrations of TXB2 led to greater constriction of the pupil (miosis). Maximum constriction of the pupil occurred at a dose of 500ng. The ED₅₀ was 70ng. Refer to Figure 2. […] The filled circles are the mean pupil diameters of the TXB2 treated eyes. The pupil diameters of the vehicle treated eyes are shown by the open circles.
SMILES,"Pupil Diameter ([1]; carbachol 200ng (1ul) injected into both eyes after TXB2 or vehicle, measured after 5 and 10 min)","pupil constriction ([2]; rabbit #8394, carbachol 200ng (1ul) intracameral, both eyes)","Pupil Diameter ([2]; rabbit #8394, eye OD (previously TXB2 treated), carbachol 200ng intracameral) [mm]","Pupil Diameter ([2]; rabbit #8394, eye OS (previously vehicle treated), carbachol 200ng intracameral) [mm]","ability of the pupillary sphincter to contract when stimulated by carbachol ([1]; rabbits, topical 0.03% flurbiprofen pretreatment, TXB2 50ug intracameral, then carbachol 200ng)","pupil diameters versus vehicle eyes ([1]; seven rabbits, 0.03% flurbiprofen pretreatment, 50ug (6ul) intracameral, 5 min after injection)",dose-response relationship of pupil constriction [3],"dose at which maximum constriction of the pupil occurred ([4]; intracameral, doses 10ng to 500ng (10ul)) [ng]","effect on pupil diameter ([4]; intracameral, doses 10ng to 500ng, measured 5 and 10 min after injection)","ED₅₀ ([4]; pupil constriction (miosis), intracameral doses 10ng to 500ng (10ul), flurbiprofen pretreatment) [ng]","Pupil Diameter ([2]; rabbit #8394, eye OD, TXB2 100ng intracameral (12ul), baseline 6.0) [mm]","Pupil Diameter ([2]; rabbit #8394, eye OD, second sequential TXB2 dose 1ug intracameral) [mm]","Pupil Diameter ([2]; rabbit #8394, eye OD, third sequential TXB2 dose 10ug intracameral) [mm]","changes in pupil diameter ([2]; rabbit #8394, three sequential intracameral doses 100ng, 1ug and 10ug)"
"C[N+](C)(C)CCOC(N)=O [Carbachol, carbachol, reference compound]",decreased significantly and to the same degree in both eyes,constricted an expected amount,3,1.5,,,,,,,,,,
"CCCCC[C@H](O)/C=C/[C@H]1OC(O)C[C@H](O)[C@@H]1C/C=C\CCCC(=O)O (some centres unmarked) [TXB2, thromboxane B₂]",,,,,nor TXB2 administration affected the ability of the pupillary sphincter to contract,no different from those eyes receiving vehicle,no dose-response relationship was observed,500,dose-related effect on pupil diameter,70,5,5,5.5,no significant changes in pupil diameter
